Laboratory results reported in patent EP4104817A1, “OPHTHALMIC COMPOSITION COMPRISING ASTRAGALOSIDE IV” (Skeye Pharma GbR, priority 2021, dated 2022).

Assays:
[1] = system: human corneal epithelial cells; experiment: WST-1 cell viability assay under oxidative stress (H2O2 100 µM, 24 hours); assay type: cell-based; conditions: H2O2 group 79 ± 14%, untreated control 100 ± 3%
Description: (§1) Human corneal epithelial cells (hCEC; SCCE016; Merck Millipore, Burlington, MA, USA) were cultured in corneal epithelial cell growth medium with supplement mix (LGC Standards, Teddington, United Kingdom). Approximately 10,000 hCECs were seeded onto each well of a 96-well cell-culture dishes (NUNC, Langenselbold, Germany). Confluent cells were used for Water-soluble tetrazolium salt (WST-1) cell proliferation assays (Hoffmann-La Roche AG, Basel, Switzerland). After 24 hours of incubation with 100 µl of corneal epithelial cell growth medium without its' supplement mix (LGC Standards, Teddington, United Kingdom), hCECs were treated with different concentrations of astragaloside IV (AIV; Selleckchem, Houston, TX, USA) dissolved in dimethyl sulfoxide (DMSO; Carl Roth AG, Karlsruhe, Germany). Control groups were treated with DMSO only. Following another 72 hours of incubation, the cells were incubated with the WST-1 solution for 30 minutes. Substrate turnover was measured with an ELISA reader at 450 nm (Spectramax 190; Molecular Devices, Sunnyvale, CA, USA) and a reference at 690 nm.
To determine potential anti-oxidative effects of astragaloside IV, hCECs were incubated and treated analogous to the above-mentioned WST-1 cell proliferation assay with minor modifications. […]

[2] = system: Intracellular, mitochondrial reactive oxygen species (ROS); experiment: Dihydrorhodamine-123 (DHR-123) fluorescence assay of ROS under oxidative stress (H2O2, 2 hours); assay type: cell-based; conditions: Homo sapiens, HCEC, hCECs, percent of DMSO control, H2O2 group 149 ± 9%, p = 0.0006 vs H2O2
Description: Intracellular, mitochondrial reactive oxygen species (ROS) were assessed using the cell membrane permeable dihydrorhodamine-123 (DHR-123) assay (D23806; ThermoFisher Scientific, Waltham, MA, USA) according to the manufacturer's instructions. Measurements were made after exposing human corneal epithelial cells to H2O2, astragaloside IV or DMSO for 2 hours. For ROS staining, cells were incubated with 10 µM DHR-123 for 15 minutes. Nucleus staining was performed using Hoechst 33342 nucleic acid stain (H1399; ThermoFisher Scientific, Waltham, MA, USA). Randomly, a minimum of 3 images of every treatment group were acquired with a 20x fluorescence objective using the aforementioned Axio Observer 7. Results were expressed in percent of fluorescence intensity relative to the baseline measurement in the DMSO control group. For quantification of the fluorescence signals, the microscope software ZEN 3.0 (Carl Zeiss AG, Jena, Germany) was used.

hCEC [3] = experiment: Cell scratch assay (migration / wound healing in vitro), follow-up up to 72 hours; assay type: cell-based, Human; conditions: 1 µM, 2.5 µM; follow-up of 72 hours; versus DMSO-only control; p > 0.05 for all groups
Description: To analyze hCEC migration in vitro, cells were cultured in corneal epithelial cell growth medium with supplement mix until confluence of the cells of a 6-well cell culture plate. Following an incubation period of 24 hours in cell culture medium without supplements, 5 linear scratches were performed in each well using a 200 µl pipette tip (Eppendorf AG, Hamburg, Germany). The hCECs were then incubated prospectively under treatment with astragaloside IV or DMSO as a control for up to 72 hours. Reference images were acquired at the beginning of the incubation period using the phase contrast mode on an Axio Observer 7 (Carl Zeiss AG, Jena, Germany). Every 24 hours, follow-up images of 4-5 different scratch sections were acquired. The size of the wound area was analyzed using a semi-automated analysis tool in ImageJ 1.53a (National Institute of Health, Bethesda, MD, USA).

[4] = system: Human corneal epithelial cells (hCEC); experiment: WST-1 cell viability assay, 72 hours of treatment; assay type: cell-based; conditions: DMSO-treated control 100 ± 9%, mean ± standard deviation
Description: as §1

bovine corneas = experiment: Corneal erosion assay ex vivo (epithelial wound healing), follow-up 72 hours; conditions: 1 µM or 2.5 µM, every 12 hours up to 72 hours, versus DMSO-treated control, p > 0.05 for all groups
Description: Furthermore, corneal epithelial cell wound healing was determined on bovine corneas ex vivo. Bovine globes were obtained from a local butchery following approval by the authority for waste management of animal carcasses (ID: DE 09 162 0066-219) and processed within 12 hours post-mortem. The bovine globes were washed in 10% w/v povidone-iodine for 5 minutes. A circular corneal epithelial erosion was created using an 8 mm trephine and a hockey knife (Katena Products Inc., Parsippany, NJ, USA). Subsequently, a sclerocorneal ring was excised with eye scissors (Katena Products Inc., Parsippany, NJ, USA) and transferred to a 60 mm cell culture plate. To acquire reference images of the corneal erosion, the wound area was stained with a 0.8 mg/ml fluorescein sodium solution and illuminated with blue light (approximate wavelength 490 nm). Images were acquired using a distance-fixed digital single lens reflex camera equipped with a macro lens (Canon Inc., Tokyo, Japan). Consequently, the sclerocorneal rings were incubated in Dulbecco's Modified Eagle's Medium (Bio&SELL GmbH, Feucht, Germany) supplemented with 50 IU penicillin/ml and 50 µg streptomycin/ml (Merck Millipore, Burlington, MA, USA) and astragaloside IV or DMSO only. Follow-up images were acquired every 12 hours, the cell culture medium was renewed daily.

hCEC [5] = experiment: BrdU ELISA cell proliferation assay, 24 hours of treatment; assay type: cell-based; conditions: Homo sapiens, compared to DMSO-treated control, mean ± standard deviation
Description: Proliferation of hCEC was determined using a 5-bromo-2'-deoxyuridine (BrdU) ELISA in accordance with the manufacturers' recommendations (Merck KGaA, Darmstadt, Germany). In brief, approximately 7,000 cells were seeded onto a 96-well cell culture plate and incubated for 24h to achieve complete adherence of the cells. After 24 hours of incubation with 100 µl of corneal epithelial cell growth medium without its' supplement mix, hCECs were treated with astragaloside IV dissolved in DMSO. Following another 24 hours of incubation with BrdU labeling solution, cells were fixed and incubated with anti-BrdU antibodies according to the manufacturer's recommendations. BrdU incorporation into the DNA of hCECs was quantified by absorbance measurement at 450 nm using the ELISA reader Spectramax 190 (Molecular Devices, Sunnyvale, CA, USA).

## CC(C)(O)C1CCC(C)(C2C(O)CC3(C)C4CC(OC5OC(CO)C(O)C(O)C5O)C5C(C)(C)C(OC6OCC(O)C(O)C6O)CCC56CC46CCC23C)O1 [astragaloside IV, (2R,3R,4S,5S,6R)-2-(((2aR,3R,4R,5aS,7R,11aR)-4-hydroxy-3-((2R,5S)-5-(2-hydroxypropan-2-yl)-2-methyltetrahydrofuran-2-yl)-2a,5a,8,8-tetramethyl-9-(((2S,3R,4S,5R)-3,4,5-trihydroxytetrahydro-2H-pyran-2-yl)oxy)hexadecahydrocyclopenta[a]cyclopropa[e]phenanthren-7-yl)oxy)-6-(hydroxymethyl)tetrahydro-2H-pyran-3,4,5-triol]
[1]; 1 µM with H2O2 100 µM, p = 0.0044 vs H2O2
  viability at 1 µM: 91 ± 4%
[1]; 2.5 µM with H2O2 100 µM, p = 0.0002 vs H2O2
  viability at 2.5 µM: 95 ± 6%
[2]; 1 µM with H2O2 100 µM
  activity at 1 µM: 94 ± 7%
[2]; 2.5 µM with H2O2 100 µM
  activity at 2.5 µM: 94 ± 15%
hCEC [3]
  corneal epithelial cell migration (scratched hCEC area over time): none of the treatment groups showed a significant decrease of corneal epithelial cell migration
[4]; 1 µM, p < 0.0001
  viability at 1 µM: 154 ± 33%
[4]; 2.5 µM, p < 0.0001
  viability at 2.5 µM: 149 ± 27%
[4]; 5 µM, p = 0.0003
  viability at 5 µM: 138 ± 22%
[4]; 10 µM, non-significant decrease, p > 0.9999
  viability at 10 µM: 89 ± 5%
Bovine corneas
  speed of re-epithelialization: did not show any significant difference in the speed of re-epithelialization
hCEC [5]; 1 µM, p = 0.0028, read-out: corneal epithelial cell proliferation
  activity at 1 µM: 125 ± 26%
hCEC [5]; 2.5 µM, p = 0.0017, read-out: corneal epithelial cell proliferation
  activity at 2.5 µM: 126 ± 30%
hCEC [5]; 5 µM, not significant, p > 0.9999, read-out: corneal epithelial cell proliferation
  activity at 5 µM: 112 ± 14%
